According to patent US20130157954A1, “METHODS FOR TREATMENT OR PROPHYLAXIS OF KIDNEY OR LIVER DYSFUNCTION” (NPS PHARMACEUTICALS, INC., priority 2010, published 2013):

Test: Example 2: liver biomarkers (albumin, gamma glutamyl transferase, total bilirubin, ALT, AST, ALP) in short bowel syndrome patients, every four weeks for 24 weeks; also sorted by >10% change from baseline
Type: in vivo, Human
Procedure: To further confirm the results of Example 1, a further study was conducted involving more individuals and additional diagnostic biomarkers. Human patients with short bowel syndrome were divided into two groups: a control group (43 total individuals) to receive placebo, and an experimental group (42 total individuals) to receive teduglutide at 0.05 mg/kg/day throughout the study. Patients were treated by subcutaneous injection of placebo or the appropriate dose of teduglutide. Known biomarkers of liver function were monitored every four weeks, for 24 weeks. The liver biomarkers tested included albumin, gamma glutamyl transferase, total bilirubin, ALT and AST and ALP. Before administration of placebo or teduglutide, diagnostic biomarker levels were tested to establish a baseline for each individual.
To determine the effect of GLP-2 on the levels of the diagnostic biomarkers, the average level of each biomarker was measured for the placebo and teduglutide treated groups for each visit. Furthermore, the average change from baseline was calculated using the established baseline values. For FIGS. 17-28, p-values were calculated using the t-test.
P values are provided, which were calculated for each distribution of biomarker changes for each week using the chi-squared test.

[1] = Endpoint (last assessment after start of treatment), 0.05 mg/kg/d, m = 42
[2] = Endpoint (last assessment after the start of treatment), 0.05 mg/kg/d

With `CC[C@H](C)[C@H](NC(=O)[C@H](Cc1ccccc1)NC(=O)[C@H](CC(=O)O)NC(=O)[C@H](CCCNC(=N)N)NC(=O)[C@H](C)NC(=O)[C@H](C)NC(=O)[C@H](CC(C)C)NC(=O)[C@H](CC(N)=O)NC(=O)[C@H](CC(=O)O)NC(=O)[C@H](CC(C)C)NC(=O)[C@@H](NC(=O)[C@@H](NC(=O)[C@H](CC(N)=O)NC(=O)[C@H](CCSC)NC(=O)[C@H](CCC(=O)O)NC(=O)[C@H](CC(=O)O)NC(=O)[C@H](CO)NC(=O)[C@H](Cc1ccccc1)NC(=O)[C@H](CO)NC(=O)CNC(=O)[C@H](CC(=O)O)NC(=O)CNC(=O)[C@@H](N)Cc1c[nH]cn1)[C@@H](C)O)[C@@H](C)CC)C(=O)N[C@@H](CC(N)=O)C(=O)N[C@@H](Cc1c[nH]c2ccccc12)C(=O)N[C@@H](CC(C)C)C(=O)N[C@H](C(=O)N[C@@H](CCC(N)=O)C(=O)N[C@H](C(=O)N[C@@H](CCCCN)C(=O)N[C@H](C(=O)N[C@H](C(=O)N[C@@H](CC(=O)O)C(=O)O)[C@@H](C)O)[C@@H](C)CC)[C@@H](C)O)[C@@H](C)CC` [teduglutide] the “level of diagnostic biomarkers elevated in liver dysfunction vs placebo cohort” value (0.05 mg/kg/day, Table 3, FIGS. 17-20 and 23-28) was “lower level, on average”, the “likelihood of >10% decrease in liver biomarkers vs placebo” value (0.05 mg/kg/day, Table 4) was “more likely to experience a >10% decrease” and the “likelihood of >10% increase in liver biomarkers vs placebo” value (0.05 mg/kg/day, Table 4) was “less likely to experience a >10% increase”. The “measured level of albumin relative to placebo cohort” value (0.05 mg/kg/day, as treatment progressed, FIGS. 21 and 22) was “became elevated”, the “ALT: subjects Within 10% of Baseline” value [1] was 12 (28.6%) n (%) and the “ALT: subjects with >10% decrease from Baseline” value [1] was 25 (59.5%) n (%). For the same molecule, the “ALT: subjects with >10% increase from Baseline” value [1] was 5 (11.9%) n (%), the “AST: subjects Within 10% of Baseline” value [1] was 11 (26.2%) n (%) and the “AST: subjects with >10% decrease from Baseline” value [1] was 25 (59.5%) n (%). For the same molecule, the “AST: subjects with >10% increase from Baseline” value [1] was 6 (14.3%) n (%), the “Albumin: subjects Within 10% of Baseline” value [1] was 40 (95.2%) n (%) and the “Albumin: subjects with >10% decrease from Baseline” value [1] was 2 (4.8%) n (%). For the same molecule, the “Albumin: subjects with >10% increase from Baseline” value [1] was 0 n (%), the “Alkaline Phosphatase: subjects Within 10% of Baseline” value [1] was 12 (28.6%) n (%) and the “Alkaline Phosphatase: subjects with >10% decrease from Baseline” value [1] was 24 (57.1%) n (%). The “Alkaline Phosphatase: subjects with >10% increase from Baseline” value [1] was 6 (14.3%) n (%), the “Bilirubin: subjects Within 10% of Baseline” value [1] was 8 (19.0%) n (%) and the “Bilirubin: subjects with >10% decrease from Baseline” value [1] was 27 (64.3%) n (%). The “Bilirubin: subjects with >10% increase from Baseline” value [1] was 7 (16.7%) n (%), the “ALKALINE PHOSPHATASE Change from Baseline Median” value [2] was −22 U/L and the “ALT Change from Baseline, Max” value [2] was 21 U/L. The “ALT Change from Baseline, Median” value [2] was −4 U/L, the “ALT Change from Baseline, Min” value [2] was −60 U/L and the “ALT Observed Value, Max” value [2] was 149 U/L. The “ALT Observed Value, Mean” value [2] was 31.0 U/L, the “ALT Observed Value, Min” value [2] was 7 U/L and the “AST Change from Baseline, Max” value [2] was 14 U/L. For the same molecule, the “AST Change from Baseline, Mean” value [2] was −5.4 U/L, the “AST Change from Baseline, Median” value [2] was −3 U/L and the “AST Change from Baseline, Min” value [2] was −47 U/L. The “AST Observed Value, Max” value [2] was 77 U/L, the “AST Observed Value, Mean” value [2] was 27.0 U/L and the “AST Observed Value, Median” value [2] was 24 U/L. The “AST Observed Value, Min” value [2] was 11 U/L, the “Albumin Change from Baseline, Max” value [2] was 3 g/L and the “Albumin Change from Baseline, Mean” value [2] was -0.5 g/L. For the same molecule, the “Albumin Change from Baseline, Median” value [2] was 0 g/L, the “Albumin Change from Baseline, Min” value [2] was -8 g/L and the “Albumin Observed Value, Max” value [2] was 48 g/L. The “Albumin Observed Value, Median” value [2] was 42 g/L, the “Albumin Observed Value, Min” value [2] was 33 g/L and the “Alkaline Phosphatase Change from Baseline, Max” value [2] was 33 U/L. The “Alkaline Phosphatase Change from Baseline, Min” value [2] was −122 U/L, the “Alkaline Phosphatase Observed Value, Max” value [2] was 328 U/L and the “Alkaline Phosphatase Observed Value, Min” value [2] was 49 U/L. The “Bilirubin Change from Baseline, Max” value [2] was 3.4 µmol/L, the “Bilirubin Change from Baseline, Min” value [2] was -26.1 µmol/L and the “Bilirubin Observed Value, Max” value [2] was 31.3 µmol/L. The “Bilirubin Observed Value, Min” value [2] was 2.5 µmol/L, the “Gamma Glutamyl Transferase Change from Baseline, Max” value [2] was 46 U/L and the “Gamma Glutamyl Transferase Change from Baseline, Median” value [2] was −6 U/L. The “Gamma Glutamyl Transferase Change from Baseline, Min” value [2] was −144 U/L, the “Gamma Glutamyl Transferase Observed Value, Max” value [2] was 228 U/L and the “Gamma Glutamyl Transferase Observed Value, Median” value [2] was 42 U/L. The “Gamma Glutamyl Transferase Observed Value, Min” value [2] was 7 U/L, the “ALKALINE PHOSPHATASE Change from Baseline Median” value (Week 2, 0.05 mg/kg/d) was −8 U/L and the “ALT Change from Baseline, Max” value (Week 2, 0.05 mg/kg/d) was 48 U/L. For the same molecule, the “ALT Change from Baseline, Mean” value (Week 2, 0.05 mg/kg/d) was −8.9 U/L, the “ALT Change from Baseline, Median” value (Week 2, 0.05 mg/kg/d) was −5.5 U/L and the “ALT Change from Baseline, Min” value (Week 2, 0.05 mg/kg/d) was −58 U/L. The “ALT Observed Value, Max” value (Week 2, 0.05 mg/kg/d) was 142 U/L, the “ALT Observed Value, Min” value (Week 2, 0.05 mg/kg/d) was 9 U/L and the “AST Change from Baseline, Max” value (Week 2, 0.05 mg/kg/d) was 22 U/L. For the same molecule, the “AST Change from Baseline, Mean” value (Week 2, 0.05 mg/kg/d) was −3.6 U/L, the “AST Change from Baseline, Median” value (Week 2, 0.05 mg/kg/d) was −3 U/L and the “AST Change from Baseline, Min” value (Week 2, 0.05 mg/kg/d) was −21 U/L. For the same molecule, the “AST Observed Value, Max” value (Week 2, 0.05 mg/kg/d) was 78 U/L, the “AST Observed Value, Mean” value (Week 2, 0.05 mg/kg/d) was 29.0 U/L and the “AST Observed Value, Min” value (Week 2, 0.05 mg/kg/d) was 11 U/L. For the same molecule, the “Albumin Change from Baseline, Max” value (Week 2, 0.05 mg/kg/d) was 3 g/L, the “Albumin Change from Baseline, Mean” value (Week 2, 0.05 mg/kg/d) was -0.9 g/L and the “Albumin Change from Baseline, Median” value (Week 2, 0.05 mg/kg/d) was -1 g/L. For the same molecule, the “Albumin Change from Baseline, Min” value (Week 2, 0.05 mg/kg/d) was -5 g/L, the “Albumin Observed Value, Max” value (Week 2, 0.05 mg/kg/d) was 47 g/L and the “Albumin Observed Value, Median” value (Week 2, 0.05 mg/kg/d) was 42 g/L. The “Albumin Observed Value, Min” value (Week 2, 0.05 mg/kg/d) was 35 g/L, the “Alkaline Phosphatase Change from Baseline, Max” value (Week 2, 0.05 mg/kg/d) was 27 U/L and the “Alkaline Phosphatase Change from Baseline, Min” value (Week 2, 0.05 mg/kg/d) was −76 U/L. For the same molecule, the “Alkaline Phosphatase Observed Value, Max” value (Week 2, 0.05 mg/kg/d) was 298 U/L, the “Alkaline Phosphatase Observed Value, Min” value (Week 2, 0.05 mg/kg/d) was 53 U/L and the “Bilirubin Change from Baseline, Max” value (Week 2, 0.05 mg/kg/d) was 8.6 µmol/L. For the same molecule, the “Bilirubin Change from Baseline, Min” value (Week 2, 0.05 mg/kg/d) was -18.2 µmol/L, the “Bilirubin Observed Value, Max” value (Week 2, 0.05 mg/kg/d) was 57.4 µmol/L and the “Bilirubin Observed Value, Min” value (Week 2, 0.05 mg/kg/d) was 2.4 µmol/L. The “Gamma Glutamyl Transferase Change from Baseline, Max” value (Week 2, 0.05 mg/kg/d) was 117 U/L, the “Gamma Glutamyl Transferase Change from Baseline, Mean” value (Week 2, 0.05 mg/kg/d) was 7.4 U/L and the “Gamma Glutamyl Transferase Change from Baseline, Median” value (Week 2, 0.05 mg/kg/d) was 2.5 U/L. For the same molecule, the “Gamma Glutamyl Transferase Change from Baseline, Min” value (Week 2, 0.05 mg/kg/d) was −48 U/L, the “Gamma Glutamyl Transferase Observed Value, Max” value (Week 2, 0.05 mg/kg/d) was 279 U/L and the “Gamma Glutamyl Transferase Observed Value, Min” value (Week 2, 0.05 mg/kg/d) was 11 U/L. The “ALT: subjects Within 10% of Baseline” value (Week 2, 0.05 mg/kg/d, m = 40) was 10 (25.0%) n (%), the “ALT: subjects with >10% decrease from Baseline” value (Week 2, 0.05 mg/kg/d, m = 40) was 23 (57.5%) n (%) and the “ALT: subjects with >10% increase from Baseline” value (Week 2, 0.05 mg/kg/d, m = 40) was 7 (17.5%) n (%). The “AST: subjects Within 10% of Baseline” value (Week 2, 0.05 mg/kg/d, m = 40) was 15 (37.5%) n (%), the “AST: subjects with >10% decrease from Baseline” value (Week 2, 0.05 mg/kg/d, m = 40) was 20 (50.0%) n (%) and the “AST: subjects with >10% increase from Baseline” value (Week 2, 0.05 mg/kg/d, m = 40) was 5 (12.5%) n (%). For the same molecule, the “Albumin: subjects Within 10% of Baseline” value (Week 2, 0.05 mg/kg/d, m = 40) was 37 (92.5%) n (%), the “Albumin: subjects with >10% decrease from Baseline” value (Week 2, 0.05 mg/kg/d, m = 40) was 3 (7.5%) n (%) and the “Albumin: subjects with >10% increase from Baseline” value (Week 2, 0.05 mg/kg/d, m = 40) was 0 n (%). For the same molecule, the “Alkaline Phosphatase: subjects Within 10% of Baseline” value (Week 2, 0.05 mg/kg/d, m = 40) was 19 (47.5%) n (%), the “Alkaline Phosphatase: subjects with >10% decrease from Baseline” value (Week 2, 0.05 mg/kg/d, m = 40) was 15 (37.5%) n (%) and the “Alkaline Phosphatase: subjects with >10% increase from Baseline” value (Week 2, 0.05 mg/kg/d, m = 40) was 6 (15.0%) n (%).
